Reference: PMC10084758, “Crystal Structure and Biochemical Analysis of a Cytochrome P450 Steroid Hydroxylase (BaCYP106A6) from Bacillus Species” (Journal of Microbiology and Biotechnology, 2022)

Target: T1, BaCYP106A6 (Bacillus sp. (in: firmicutes), UniProt Z9J180VW61)
T1 construct: His-tagged, pET28a(+), E. coli C41(DE3); Co2+ resin; monomer; N-terminus MLKEVI and C-terminus NVYK deduced from printed primers; heme-ligating Cys356; unique Arg295
T1 sequence (Z9J180VW61 1-410): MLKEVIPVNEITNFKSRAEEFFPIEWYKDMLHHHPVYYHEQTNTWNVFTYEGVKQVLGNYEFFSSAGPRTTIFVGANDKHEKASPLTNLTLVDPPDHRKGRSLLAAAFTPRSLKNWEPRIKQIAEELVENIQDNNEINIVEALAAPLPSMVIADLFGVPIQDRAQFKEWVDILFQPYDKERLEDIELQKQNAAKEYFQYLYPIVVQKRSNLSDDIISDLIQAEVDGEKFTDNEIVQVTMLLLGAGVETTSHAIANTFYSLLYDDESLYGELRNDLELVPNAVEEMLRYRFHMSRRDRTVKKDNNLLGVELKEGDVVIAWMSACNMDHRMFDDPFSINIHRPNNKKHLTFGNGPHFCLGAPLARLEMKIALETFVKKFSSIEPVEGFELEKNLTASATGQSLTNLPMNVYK
Test: UV-visible type I difference spectral titration
Type: binding

Question: For `C[C@]12CCC(=O)C=C1CC[C@@H]1[C@@H]2CC[C@]2(C)C(=O)CC[C@@H]12` [androstenedione], which Kd is on record?
Answer: The Kd was 36.6 µM.

Question: Which Kd does the source give for `CC(=O)[C@H]1CC[C@H]2[C@@H]3CCC4=CC(=O)CC[C@]4(C)[C@H]3CC[C@]12C` [progesterone] here?
Answer: Its Kd is 38.4 µM.
